# Measurements reported in US11279735B2, “Cyclic peptide antibiotics” (priority 2017, dated 2022).
# *1 amine or outer side, *2 acyl side, *3 side chain or, on linkers, in order; H or OH if unused. Where a SMILES comes first, the peptide text is derived from it. [ ]: non-standard residue; d: D form. The star is where a group is joined. X2 = CCCCCC[C@@H](OC[C@@H](C)N[*:1])[C@@H](C)C(=O)[*:2]; NMeL = CN[C@@H](CC(C)C)C(=O)O; Chg = N[C@H](C(=O)O)C1CCCCC1; Dap = NC[C@H](N)C(=O)O; X7 = NCC(O)C*
# Test system: Escherichia coli (E. coli) strain CFT073 ATCC 700928
# Format: cell-based
# Conditions: ATCC 700928, 22 h
# Outline: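 MICs were read after 22 h at 35 °C, with bacteria added to a final OD600 of 0.0005. Compounds were serially diluted 2-fold over ten concentrations from a top of 64, 4, 0.5 or 0.13 μg/mL (protocols 1–4). Medium was cation-adjusted Mueller Hinton II broth plus 0.002% Tween-80, following CLSI M07-A8.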
row,MIC,SMILES
1,12 µM,"CCCCCC[C@H]1OC[C@@H](C)NC(=O)[C@H](COCC(O)CN)NC(=O)[C@H](CN)NC(=O)[C@H](C2CCCCC2)NC(=O)[C@H](CC(C)C)N(C)C(=O)[C@@H]1C (stereo partly drawn) [Example 173, (3R,6S,9S,12S,15S,18R,19R)-6-((3-Amino-2-hydroxypropoxy)methyl)-9-(aminomethyl)-12-cyclohexyl-19-hexyl-15-isobutyl-3,16,18-trimethyl-1-oxa-4,7,10,13,16-pentaazacyclononadecane-5,8,11,14,17-pentaone] (cyclo([Chg][Dap]S(X7)[X2][NMeL]))"
2,1.6 µM,"CCCCCC[C@H]1OC[C@@H](C)NC(=O)[C@H](COc2ccc(CCN)cc2)NC(=O)[C@H](CN)NC(=O)[C@H](C2CCCCC2)NC(=O)[C@H](CC(C)C)N(C)C(=O)[C@@H]1C [Example 174, (3R,6S,9S,12S,15S,18R,19R)-6-((4-(2-Aminoethyl)phenoxy)methyl)-9-(aminomethyl)-12-cyclohexyl-19-hexyl-15-isobutyl-3,16,18-trimethyl-1-oxa-4,7,10,13,16-pentaazacyclononadecane-5,8,11,14,17-pentaone]"
